Assay results taken from ChEMBL document CHEMBL1201862, “PubChem BioAssay data set” (2004).
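Each compound was tested at five concentrations against cells in 96-well plates for 48 hours. The concentration for 50% growth inhibition is given as GI50.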 Calls of active or inactive are those of the source. No stated cut-off is given here; in the data, active = GI50 up to about 1.1 µM and inactive = higher.

Experiments:
Test in all cases: NCI-60 cell line screen, 48 h
SN12C = system: SN12C
SF-539 = system: SF-539
Hs-578T = system: Hs-578T
SK-MEL-5 = system: SK-MEL-5
DU-145 = system: DU-145
HCT-15 = system: HCT-15
OVCAR-5 = system: OVCAR-5
SK-MEL-2 = system: SK-MEL-2
NCI-H460 = system: NCI-H460
K562 = system: K562
HL-60 = system: HL-60
MDA-N = system: MDA-N
EKVX = system: EKVX
RXF 393 = system: RXF 393
Malme-3M = system: Malme-3M
NCI/ADR-RES = system: NCI/ADR-RES
SNB-75 = system: SNB-75
KM12 = system: KM12
CCRF-CEM = system: CCRF-CEM
NCI-H522 = system: NCI-H522

Structure (SMILES): CCC1=[N+](CC)CCN1CC
- GI50 (SN12C): > 100 µM (inactive)
- GI50 (SF-539): > 100 µM (inactive)
- GI50 (Hs-578T): > 100 µM (inactive)
- GI50 (SK-MEL-5): > 100 µM (inactive)
- GI50 (DU-145): > 100 µM (inactive)
- GI50 (HCT-15): > 100 µM
- GI50 (OVCAR-5): > 100 µM (inactive)
- GI50 (SK-MEL-2): > 100 µM (inactive)
- GI50 (NCI-H460): > 100 µM (inactive)
- GI50 (K562): > 100 µM (inactive)
- GI50 (HL-60): > 100 µM (inactive)
- GI50 (MDA-N): > 100 µM (inactive)
- GI50 (EKVX): > 100 µM (inactive)
- GI50 (RXF 393): > 100 µM (inactive)
- GI50 (Malme-3M): > 100 µM (inactive)
- GI50 (NCI/ADR-RES): > 100 µM (inactive)
- GI50 (SNB-75): > 100 µM (inactive)
- GI50 (KM12): > 100 µM (inactive)
- GI50 (CCRF-CEM): > 100 µM (inactive)
- GI50 (NCI-H522): > 100 µM (inactive)

Structure (SMILES): S=C1Nc2ccccc2SC1c1ccccc1 (stereo not drawn)
- GI50 (SN12C): > 100 µM (inactive)
- GI50 (Hs-578T): 19.9 µM (inactive)
- GI50 (SK-MEL-5): > 100 µM (inactive)
- GI50 (DU-145): > 100 µM (inactive)
- GI50 (HCT-15): > 100 µM
- GI50 (OVCAR-5): > 100 µM (inactive)
- GI50 (NCI-H460): > 100 µM (inactive)
- GI50 (K562): 94.8 µM (inactive)
- GI50 (HL-60): 5.22 µM (inactive)
- GI50 (MDA-N): > 100 µM (inactive)
- GI50 (EKVX): > 100 µM (inactive)
- GI50 (RXF 393): 16.6 µM (inactive)
- GI50 (Malme-3M): 92.3 µM (inactive)
- GI50 (NCI/ADR-RES): 56.1 µM (inactive)
- GI50 (SNB-75): 23.6 µM (inactive)
- GI50 (KM12): > 100 µM (inactive)
- GI50 (CCRF-CEM): 2.96 µM (inactive)
- GI50 (NCI-H522): > 100 µM (inactive)

Structure (SMILES): O=C1c2cccnc2S(=O)(=O)N1c1ccc(Br)cc1
- GI50 (SN12C): > 100 µM (inactive)
- GI50 (Hs-578T): > 100 µM (inactive)
- GI50 (SK-MEL-5): > 100 µM (inactive)
- GI50 (DU-145): > 100 µM (inactive)
- GI50 (HCT-15): > 100 µM
- GI50 (OVCAR-5): > 100 µM (inactive)
- GI50 (SK-MEL-2): > 100 µM (inactive)
- GI50 (K562): 41.6 µM (inactive)
- GI50 (HL-60): < 0.01 µM (active)
- GI50 (MDA-N): > 100 µM (inactive)
- GI50 (EKVX): > 100 µM (inactive)
- GI50 (RXF 393): > 100 µM (inactive)
- GI50 (Malme-3M): 73.6 µM (inactive)
- GI50 (NCI/ADR-RES): > 100 µM (inactive)
- GI50 (SNB-75): 95.1 µM (inactive)
- GI50 (KM12): > 100 µM (inactive)
- GI50 (CCRF-CEM): 43 µM (inactive)
- GI50 (NCI-H522): > 100 µM (inactive)

Structure (SMILES): O=C(O)[C@@H]1CCC(=O)N1C(c1ccc2c(c1)OCO2)c1ccc2c(c1)OCO2
- GI50 (SN12C): > 100 µM (inactive)
- GI50 (SF-539): > 100 µM (inactive)
- GI50 (Hs-578T): > 100 µM (inactive)
- GI50 (SK-MEL-5): > 100 µM (inactive)
- GI50 (DU-145): > 100 µM (inactive)
- GI50 (HCT-15): > 100 µM
- GI50 (OVCAR-5): > 100 µM (inactive)
- GI50 (SK-MEL-2): > 100 µM (inactive)
- GI50 (NCI-H460): > 100 µM (inactive)
- GI50 (K562): > 100 µM (inactive)
- GI50 (HL-60): > 100 µM (inactive)
- GI50 (MDA-N): > 100 µM (inactive)
- GI50 (EKVX): > 100 µM (inactive)
- GI50 (Malme-3M): > 100 µM (inactive)
- GI50 (NCI/ADR-RES): > 100 µM (inactive)
- GI50 (SNB-75): > 100 µM (inactive)
- GI50 (KM12): > 100 µM (inactive)
- GI50 (CCRF-CEM): > 10 µM (inactive)
- GI50 (NCI-H522): > 100 µM (inactive)

Structure (SMILES): CN(C)c1ccc2c(c1)oc(=O)c1ccccc12
- GI50 (SN12C): 12.8 µM (inactive)
- GI50 (SF-539): 14 µM (inactive)
- GI50 (Hs-578T): 17.5 µM (inactive)
- GI50 (SK-MEL-5): 10.7 µM (inactive)
- GI50 (DU-145): 10.7 µM (inactive)
- GI50 (HCT-15): 12.6 µM
- GI50 (OVCAR-5): 15.5 µM (inactive)
- GI50 (SK-MEL-2): 6.24 µM (inactive)
- GI50 (NCI-H460): 10.4 µM (inactive)
- GI50 (K562): 4.52 µM (inactive)
- GI50 (HL-60): 3.69 µM (inactive)
- GI50 (MDA-N): 6.27 µM (inactive)
- GI50 (EKVX): 16.7 µM (inactive)
- GI50 (RXF 393): 5.4 µM (inactive)
- GI50 (Malme-3M): 11.8 µM (inactive)
- GI50 (NCI/ADR-RES): 14.1 µM (inactive)
- GI50 (SNB-75): 17.8 µM (inactive)
- GI50 (CCRF-CEM): 4.24 µM (inactive)
- GI50 (NCI-H522): 8.36 µM (inactive)

Structure (SMILES): O=c1oc2ccccc2cc1-c1cn2c(n1)sc1ccccc12
- GI50 (SN12C): > 100 µM (inactive)
- GI50 (SF-539): > 100 µM (inactive)
- GI50 (Hs-578T): > 100 µM (inactive)
- GI50 (SK-MEL-5): > 100 µM (inactive)
- GI50 (DU-145): > 100 µM (inactive)
- GI50 (HCT-15): > 100 µM
- GI50 (SK-MEL-2): > 100 µM (inactive)
- GI50 (NCI-H460): > 100 µM (inactive)
- GI50 (K562): > 100 µM (inactive)
- GI50 (HL-60): > 100 µM (inactive)
- GI50 (MDA-N): > 100 µM (inactive)
- GI50 (EKVX): 2.33 µM (inactive)
- GI50 (RXF 393): > 100 µM (inactive)
- GI50 (NCI/ADR-RES): > 100 µM (inactive)
- GI50 (SNB-75): > 100 µM (inactive)
- GI50 (KM12): 93.5 µM (inactive)
- GI50 (CCRF-CEM): > 100 µM (inactive)
- GI50 (NCI-H522): 26.1 µM (inactive)

Structure (SMILES): O=C1N=C(c2ccccc2)O/C1=C\c1ccccc1
- GI50 (SN12C): > 100 µM (inactive)
- GI50 (SF-539): > 100 µM (inactive)
- GI50 (Hs-578T): > 100 µM (inactive)
- GI50 (SK-MEL-5): > 100 µM (inactive)
- GI50 (DU-145): > 100 µM (inactive)
- GI50 (HCT-15): > 100 µM
- GI50 (OVCAR-5): > 100 µM (inactive)
- GI50 (SK-MEL-2): > 100 µM (inactive)
- GI50 (NCI-H460): > 100 µM (inactive)
- GI50 (HL-60): > 100 µM (inactive)
- GI50 (MDA-N): > 100 µM (inactive)
- GI50 (RXF 393): > 100 µM (inactive)
- GI50 (Malme-3M): > 100 µM (inactive)
- GI50 (NCI/ADR-RES): > 100 µM (inactive)
- GI50 (SNB-75): > 100 µM (inactive)
- GI50 (KM12): > 100 µM (inactive)
- GI50 (NCI-H522): > 100 µM (inactive)

Structure (SMILES): CCCc1nnc2sc(COc3ccc(OCc4nn5c(CCC)nnc5s4)c(Cl)c3)nn12
- GI50 (SN12C): 29.4 µM (inactive)
- GI50 (SF-539): 12.1 µM (inactive)
- GI50 (Hs-578T): 47 µM (inactive)
- GI50 (SK-MEL-5): 7.35 µM (inactive)
- GI50 (DU-145): 24.8 µM (inactive)
- GI50 (HCT-15): 24.9 µM
- GI50 (OVCAR-5): 50.4 µM (inactive)
- GI50 (SK-MEL-2): 42.1 µM (inactive)
- GI50 (NCI-H460): 23.3 µM (inactive)
- GI50 (K562): 32.1 µM (inactive)
- GI50 (HL-60): 14.8 µM (inactive)
- GI50 (MDA-N): 16.9 µM (inactive)
- GI50 (EKVX): 14.3 µM (inactive)
- GI50 (RXF 393): 27 µM (inactive)
- GI50 (Malme-3M): 22.1 µM (inactive)
- GI50 (NCI/ADR-RES): 30.5 µM (inactive)
- GI50 (SNB-75): 22.2 µM (inactive)
- GI50 (KM12): 31 µM (inactive)
- GI50 (NCI-H522): 21.1 µM (inactive)
